We go through three molecules from article PMC6990646 (ACS Omega, 2020).

Data set [1] relates to HAdV7. Kind of data set: Plaque reduction assay against adenovirus 7. It counts as cell-based, human adenovirus type 7. To be noted: for mean % of reduction, adenovirus type 7: nontoxic dose of compound. (In general: Plaque reduction counts the foci of infection that form in a cell layer.)
In data set [2] the test system is HSV-1. To be noted: for IC50: herpes simplex virus, plaque reduction; for mean % of reduction, herpes simplex virus: nontoxic dose of compound.
The test system of data set [3] is Vero cell line. Kind of data set: Cytotoxicity test on Vero cell line. It counts as cell-based. To be noted: herpes simplex virus table; host cells Vero.
Data set [4] deals with Hep2 cell line. Kind of data set: Cytotoxicity test on Hep2 cell line. The conditions noted are these: adenovirus type 7 columns; host cells Hep-2. Format: cell-based.
For data set [5], the system named is HAV HM175. Kind of data set: Plaque reduction assay against HAV HM175. It counts as cell-based, hepatitis A virus HM 175. To be noted: hepatitis A virus HM 175, plaque reduction.
In data set [6] the test system is ED-43/SG-Feo (VYG) replicon of HCV genotype 4a. Kind of data set: Antiviral bioassay against ED-43/SG-Feo. It counts as cell-based. The conditions noted are these: for IC50: HCVcc genotype 4; for mean % of reduction, HCVcc genotype 4: nontoxic dose of compound.
The subject of data set [7] is FRHK-4 cell line. Kind of data set: Cytotoxicity test on FRHK-4 cell line. Format: cell-based. To be noted: hepatitis A virus HM 175 columns; host cells FRHK4.
The subject of data set [8] is Huh 7.5 cell line. Kind of data set: Cytotoxicity test on Huh 7.5 cell line. It counts as cell-based. To be noted: HCVcc genotype 4 columns; host cells Huh 7.5.
The test system of data set [9] is ADV7. To be noted: cited from earlier work.

Converted amounts (≈) assume the structure as drawn. “And” between values parts separate entries of the source, which are not always exact repeats. Equal values may be shown once.

Regarding `O=C(CNc1nc(NS(=O)(=O)c2ccccc2)ncc1-c1nc2ccccc2s1)c1ccc(Br)cc1` [9a, N-(5-(Benzo[d]thiazol-2-yl)-4-((2-(4-bromophenyl)-2-oxoethyl)amino)pyrimidin-2-yl)benzenesulfonamide], the half-maximal inhibitory concentration (IC50) (in general, the concentration needed to halve the response being measured) worked out at 120 µg/mL (≈ 207 µM) in [1] (adenovirus type 7, plaque reduction); 63 µg/mL (≈ 109 µM) in data set [2]; 78 µg/mL (≈ 134 µM) in [5]; 120 µg/mL (≈ 207 µM) in data set [6]. Further, the “mean % of reduction, adenovirus type 7” value in data set [1] worked out at 50 ± 0.9%. Besides, the “mean % of reduction, herpes simplex virus” value in [2] was 90% and 90 ± 2.5%. Also, the CC50 (in general, the concentration giving 50% cytotoxicity) amounted to 270 µg/mL (≈ 465 µM) in data set [3], 260 µg/mL (≈ 448 µM) in [4], 240 µg/mL (≈ 413 µM) in data set [7] and 250 µg/mL (≈ 431 µM) in data set [8]. In addition, the “mean % of reduction, HCVcc genotype 4” value in [6] amounted to 50 ± 0.9%.

Turning to `O=C(CNc1nc(NS(=O)(=O)c2ccccc2)ncc1-c1nc2ccccc2s1)c1ccc(Cl)cc1` [9b, N-(5-(Benzo[d]thiazol-2-yl)-4-((2-(4-chlorophenyl)-2-oxoethyl)amino)pyrimidin-2-yl)benzenesulfonamide], the “mean % of reduction, adenovirus type 7” value in [1] is recorded as 40 ± 0.8%. Also, the IC50 came out at 74 µg/mL (≈ 138 µM) in [2], 86 µg/mL (≈ 160 µM) in [5] and 86 µg/mL (≈ 160 µM) in [6]. Moreover, the “mean % of reduction, herpes simplex virus” value in data set [2] was 70% and 70 ± 1.5%. For the same molecule, the CC50 is 240 µg/mL (≈ 448 µM) in [3], 230 µg/mL (≈ 429 µM) in data set [7] and 250 µg/mL (≈ 466 µM) in [8]. The “mean % of reduction, HCVcc genotype 4” value in data set [6] stood at 60 ± 1.2%.

Turning to `NC(=O)c1ncn([C@@H]2O[C@H](CO)[C@@H](O)[C@H]2O)n1` [ribavirin], the EC50 (in general, the concentration giving half of the maximal effect) in data set [9] is 27.8 µg/mL (≈ 114 µM).
